Data on 27 molecules can be found in the ASAP Discovery antiviral challenge data (2025).

Values after ≈ are worked out from the molar mass of the structure shown. Values joined by “and” are separate entries in the source; they are usually repeats but may differ in a detail not shown here. Identical values can stand only once.

Experiment in data set [1]: not given
This is another data set of the same source.

The conditions of data set [2]: mdck_mdr1.

As for `O=C(O)COc1cccc(NC(=O)c2cc(Cl)cc(NC(=O)OCc3ccccc3)c2)c1`, the solubility (kinetic) (in general, solubility judged after dilution from a stock solution rather than from solid) was found to be 360 µM (≈ 164 µg/mL). Also, the logD (usually lipophilicity at a set pH, counting ionised and neutral species) in data set [1] turned out to be 1.8. Further, in data set [2], the Papp (as a rule, a coefficient for how fast a substance crosses the barrier) came to 1.1 ×10⁻⁶ cm/s.

The molecule `C[C@H]1O[C@@H](O[C@H]2[C@@H](O)C[C@H](O[C@H]3[C@@H](O)C[C@H](O[C@H]4CC[C@@]5(C)[C@H](CC[C@@H]6[C@@H]5C[C@@H](O)[C@]5(C)[C@@H](C7=CC(=O)OC7)CC[C@]65O)C4)O[C@@H]3C)O[C@@H]2C)C[C@H](O)[C@@H]1O` registered a Papp in data set [2] of 0.6 ×10⁻⁶ cm/s.

In turn, `O=C(Nc1cc(Cl)cc(C(=O)Nc2cccc(-c3nnn[nH]3)c2)c1)OCc1ccccc1` yielded a solubility (kinetic) of 65 µM (≈ 29.2 µg/mL). The logD in data set [1] was 3.7. In addition, the apparent permeability (Papp) in data set [2] came to 5.06 ×10⁻⁶ cm/s.

As to `CNC(=O)[C@H](Nc1cc(CN)cc(C(=O)O)c1)c1cc(Cl)cc(C2CC2)c1` (racemic), the kinetic solubility worked out at 335 µM (≈ 130 µg/mL). The logD in data set [1] is 0. In data set [2], this molecule showed a Papp of 0.94 ×10⁻⁶ cm/s.

`O=C1Cc2c(cc(F)cc2C(=O)Nc2ccc3c(c2)CNC3)N1` displayed a kinetic solubility of 368 µM (≈ 115 µg/mL). The molecule further returned a log distribution coefficient (logD) in data set [1] of -0.2. Besides, the Papp in data set [2] is 2.9 ×10⁻⁶ cm/s.

`O=C(NCC(F)F)[C@H](Nc1ccc2c(c1)CNC2)c1cc(Cl)cc2ccoc12` (racemic) showed a solubility (kinetic) of 187 µM (≈ 75.9 µg/mL). The logD in data set [1] was found to be 0.6. This molecule returned a Papp in data set [2] of 2.1 ×10⁻⁶ cm/s.

Take `CNC(=O)[C@H](Nc1ccc2c(c1)CNC2)c1cc(Cl)cc(C2CC2)c1` (racemic): the kinetic solubility was 358 µM (≈ 127 µg/mL). The molecule further displayed a logD in data set [1] of 0.9. This molecule also displayed a Papp in data set [2] of 1.5 ×10⁻⁶ cm/s.

On to `O=C(NCC(F)F)[C@H](Nc1ccc2c(c1)CNC2)c1cc(Cl)cc(C2CC2)c1` (racemic), for which the kinetic solubility came out at 367 µM (≈ 149 µg/mL). For the same molecule, the logD in data set [1] is 1.6. For the same molecule, the Papp in data set [2] turned out to be 1.55 ×10⁻⁶ cm/s.

Take `O=C1Cc2c(cccc2C(=O)Nc2ccc3c(c2)CNC3)N1`: the kinetic solubility turned out to be 152 µM (≈ 44.6 µg/mL). Moreover, the pH-dependent lipophilicity (logD) in data set [1] was 0.3. Besides, the Papp in data set [2] stood at 0.924 ×10⁻⁶ cm/s.

For the molecule `COc1cc(Cl)cc([C@H](Nc2ccc3c(c2)CNC3)C(=O)NCC(F)F)c1` (racemic), the logD in data set [1] came out at 0.5. Further, the Papp in data set [2] is 0.7 ×10⁻⁶ cm/s.

Consider `CNC(=O)[C@H](Nc1ccc2c(c1)CNC2)c1cc(Cl)cc2[nH]c(-c3ccccc3)nc12` (racemic), for which the kinetic solubility was determined as 178 µM (≈ 76.9 µg/mL). In data set [1], this molecule displayed a logD of 1.8. The molecule also displayed a Papp in data set [2] of 1.02 ×10⁻⁶ cm/s.

The molecule `C=C[C@H]1CN2CC[C@H]1C[C@@H]2[C@@H](O)c1ccnc2ccc(OC)cc12` had a Papp in data set [2] of 13.9 ×10⁻⁶ cm/s.

Regarding `COCc1cc(Cl)cc([C@H](Nc2ccc3c(c2)CNC3)C(=O)NCC(F)F)c1` (racemic), the kinetic solubility stood at 192 µM (≈ 78.7 µg/mL). Besides, in data set [1], the logD turned out to be 0.2. For the same molecule, the Papp in data set [2] worked out at 1.7 ×10⁻⁶ cm/s.

In turn, `CNC(=O)[C@H](Nc1ccc(-c2nnn[nH]2)cc1)c1cc(Cl)cc(C2CC2)c1` (racemic) gave a logD in data set [1] of 1.1. Besides, the Papp in data set [2] is 1.6 ×10⁻⁶ cm/s.

The molecule `Cc1nccn1C[C@H]1CCc2c(c3ccccc3n2C)C1=O` (racemic) had a kinetic solubility of 127 µM (≈ 37.3 µg/mL).

`CCc1cc(C(=O)Nc2cccc(CN)c2)sc1-c1ccc(Cl)cc1` had a kinetic solubility of 7 µM (≈ 2.6 µg/mL). For the same molecule, in data set [1], the logD was 4.3. In data set [2], this molecule showed a Papp of 0.995 ×10⁻⁶ cm/s.

On to `O=C(NCC(F)F)[C@H](Nc1ccc2c(c1)CNC2)c1cc(Br)cc2nc[nH]c12` (racemic), for which the logD in data set [1] stood at 0.4. Further, the Papp in data set [2] came to 0.5 ×10⁻⁶ cm/s.

In turn, `NCc1cc(C(=O)O)cc([C@@H]2C[C@H]2c2cc(Cl)cc(NC(=O)OCc3ccccc3)c2)c1` (racemic) returned a kinetic solubility of 52 µM (≈ 23.4 µg/mL). This molecule showed a logD in data set [1] of 2.7. In data set [2], this molecule had a Papp of 0.819 ×10⁻⁶ cm/s.

Turning to `CC(C)[C@H](Nc1ncnc2[nH]c(C(=O)N[C@@H]3CCN(C)C3)cc12)c1ccc2c(c1)S(=O)(=O)CCC2` (single isomer, unassigned), the kinetic solubility is 366 µM and 392 µM. The pH-dependent lipophilicity (logD) in data set [1] is 1.4 and 1.6.

Turning to `NCc1cccc(NC(=O)c2cc(Cl)cc(NC(=O)OCc3ccccc3)c2)c1`, the kinetic solubility turned out to be 89 µM (≈ 36.5 µg/mL). In data set [1], the logD was 2.7. This molecule also displayed a Papp in data set [2] of 2.11 ×10⁻⁶ cm/s.

Take `O=C(Nc1cc(Cl)cc(C(=O)Nc2n[nH]c3c2CNC3)c1)OCc1ccccc1`: the solubility (kinetic) was determined as 26 µM (≈ 10.7 µg/mL). Further, the Papp in data set [2] is 1.44 ×10⁻⁶ cm/s.

With `CC(C)[C@H](Nc1ncnc2[nH]cc(C(=O)NC3CC3)c12)c1ccc2c(c1)S(=O)(=O)CCC2` (single isomer, unassigned), the logD in data set [1] is 3.2 and 3. In addition, the Papp in data set [2] is 2.97 ×10⁻⁶ cm/s and 1.27 ×10⁻⁶ cm/s.

The molecule `CC(C)NC(=O)[C@H](Nc1ccc2c(c1)CNC2)c1cc(Cl)cc2[nH]ncc12` (racemic) registered a solubility (kinetic) of 311 µM (≈ 119 µg/mL). Moreover, in data set [1], the logD is 0.5. The molecule further displayed a Papp in data set [2] of 0.963 ×10⁻⁶ cm/s.

Turning to `Cc1cc([C@H](Nc2ccc3c(c2)CNC3)C(=O)NCC(F)F)cc(C(F)(F)F)c1` (racemic), in data set [1], the logD was 1. Moreover, the Papp in data set [2] was 0.7 ×10⁻⁶ cm/s.

With `C=CC[C@H]1NCc2cc(NC(=O)c3cc(F)cc4[nH]ncc34)ccc21` (racemic), the kinetic solubility was found to be 356 µM (≈ 120 µg/mL). This molecule yielded a logD in data set [1] of 1.7. In addition, the apparent permeability (Papp) in data set [2] amounted to 3.86 ×10⁻⁶ cm/s.

The molecule `CC(C)c1nc2c(C(=O)Nc3cccc(CN)c3)cccc2[nH]1` showed a kinetic solubility of 316 µM (≈ 97.4 µg/mL). Further, the logD in data set [1] stood at 1.9. In data set [2], this molecule displayed a Papp of 3.84 ×10⁻⁶ cm/s.

Turning to `CC(C)n1cc2c(C(=O)Nc3ccc4c(c3)CNC4)cc(Cl)cc2n1`, the kinetic solubility came out at 181 µM (≈ 64.2 µg/mL). Also, in data set [1], the logD was 1.6. Moreover, in data set [2], the apparent permeability coefficient (Papp) is 3.4 ×10⁻⁶ cm/s.
